# Data reported in US20050054006A1, “Combinatorial fluorescent library based on the styryl scaffold” (New York University, priority 2003, published 2005).
# Columns and labels:
# [1] = Spectrophotometric properties of the free styryl dyes; type: physicochemical
# Description: (§1) With these compounds(FIG. 2), we observed the fluorescence intensity change upon addition of DNA. […] With a series of concentrations of dsDNA (double stranded DNA) added to compound 1, a linear increase in the fluorescence intensities was observed (FIG. 3). At the highest concentration of DNA tested (50 μg/mL), the increase in fluorescence emission reached up to 13.3 times higher than that of the free compound (FIG. 4). A blue shift of 17 nm in the emission wavelength upon DNA addition was observed, without a significant excitation wavelength shift. The structure of compound 1 includes a 2,4,5-trimethoxy group from the benzaldehyde moiety and a unique adamantyl pyridinium functionality.
# [2] = system: UACC-62 human melanoma cells; assay: Organelle localization in live cells by fluorescence microscopy; conditions: live UACC-62 cells; for LOCALIZATION: fluorescence microscope λex=405, 490, 570 nm, λem>510 nm
# [3] = system: dsDNA (double stranded DNA); assay: Fluorescence change of the dye upon addition of DNA (fluorometric titration); type: binding
# Description: as §1
# Different trimethoxy isomers, 2 (3,4,5-trimethoxy) and 3 (2,3,4-trimethoxy) were synthesized to compare the positional effects of the methoxy groups in compound 1 (FIG. 2). While the responses of compound 2 and 3 to DNA treatment were simliar to that of compound 1, the fluorescence emission increase was much smaller in compound 2 (4.3 fold) and compound 3 (1.5 fold).
# [4] = Fluorescence excitation/emission of the styryl dye library compounds; type: physicochemical
structure (smiles),measurement,setting,value
COc1cc(OC)c(OC)cc1C=Cc1cc[n+](C23CC4CC(CC(C4)C2)C3)cc1.[Br-] [Compound 1],emission wavelength,[1],583 nm
same,excitation wavelength,[1],413 nm
same,λem free (nm),[1]; free dye,583 nm
same,λmax (nm),[1]; free dye,413 nm
same,linear fluorescence response range,"[1]; in PBS, without self-quenching or wavelength shifts",0.05 to 100 µM
same,φF free,"[1]; quantum yield, free dye",0.00024
same,nuclear localization / staining in live cells,"[2]; compounds 1, 2, 3 at the same concentration",more selective staining of the nucleus of live cells
same,blue shift in the emission wavelength upon DNA addition,[3],17 nm
same,fluorescence intensity change upon addition of DNA,[3],strong fluorescence increase
same,increase in fluorescence emission versus free compound,"[3]; highest DNA concentration tested, 50 μg/mL",13.3 times
same,φF DNA,"[3]; quantum yield, with DNA",0.0032
same,φF DNA/φF free,[3]; ratio of quantum yields with DNA and free,13.3
same,λem DNA (nm),[3]; with DNA,566 nm
COc1ccc2c(ccc(/C=C/c3ccc4ccccc4c3)[n+]2C)c1.[I-] [Compound I33],LOCALIZATION,[2],VESICLE and MITO and NUCLEI
same,EM(nm),[4]; EX/EM peak no. 1,640 nm
same,EX(nm),[4]; EX/EM peak no. 1,420 nm
same,EM(nm),[4]; EX/EM peak no. 2,560 nm
same,EX(nm),[4]; EX/EM peak no. 2,320-460 nm
COc1ccc2c(ccc(C=CC=Cc3ccccc3)[n+]2C)c1.[I-] [Compound I35],LOCALIZATION,[2],CYTO
same,EM(nm),[4]; EX/EM peak no. 1,580 nm
same,EX(nm),[4]; EX/EM peak no. 1,320-360 nm
COc1ccc2c(ccc(C=CC=Cc3ccc(N(C)C)cc3)[n+]2C)c1.[I-] [Compound I37],LOCALIZATION,[2],CYTO
same,EM(nm),[4]; EX/EM peak no. 1,730 nm
same,EX(nm),[4]; EX/EM peak no. 1,530 nm
COc1ccc2c(ccc(C=Cc3cc(OC)c(OC)cc3OC)[n+]2C)c1.[I-] [Compound I38],LOCALIZATION,[2],CYTO
same,EM(nm),[4]; EX/EM peak no. 1,620 nm
same,EX(nm),[4]; EX/EM peak no. 1,390 nm
Cc1ccnc(-c2cc(/C=C/Cc3ccccc3)cc[n+]2C)c1.[I-] [Compound J1],LOCALIZATION,[2],MITO
same,EM(nm),[4]; EX/EM peak no. 1,620 nm
same,EX(nm),[4]; EX/EM peak no. 1,450 nm
Cc1ccnc(-c2cc(/C=C/c3ccccc3Br)cc[n+]2C)c1.[I-] [Compound J3],LOCALIZATION,[2],MITO
same,EM(nm),[4]; EX/EM peak no. 1,620 nm
same,EX(nm),[4]; EX/EM peak no. 1,450 nm
COc1ccccc1C=Cc1cc[n+](C)c(-c2cc(C)ccn2)c1.[I-] [Compound J9],LOCALIZATION,[2],MITO
same,EM(nm),[4]; EX/EM peak no. 1,520 nm
same,EX(nm),[4]; EX/EM peak no. 1,420(broad) nm
COc1ccc(C=Cc2cc[n+](C)c(-c3cc(C)ccn3)c2)cc1.[I-] [Compound J10],LOCALIZATION,[2],MITO
same,EM(nm),[4]; EX/EM peak no. 1,520 nm
same,EX(nm),[4]; EX/EM peak no. 1,350-450 nm
Cc1ccnc(-c2cc(C=Cc3ccc(OCc4ccccc4)c(OCc4ccccc4)c3)cc[n+]2C)c1.[I-] [Compound J12],LOCALIZATION,[2],VESICLE
same,EM(nm),[4]; EX/EM peak no. 1,560 nm
same,EX(nm),[4]; EX/EM peak no. 1,350-470 nm
COc1ccc(C=Cc2cc[n+](C)c(-c3cc(C)ccn3)c2)cc1O.[I-] [Compound J15],LOCALIZATION,[2],VESICLE
same,EM(nm),[4]; EX/EM peak no. 1,530 nm
same,EX(nm),[4]; EX/EM peak no. 1,340-440 nm
Cc1ccnc(-c2cc(/C=C/c3ccc(N(C)C)cc3)cc[n+]2C)c1.[I-] [Compound J19],LOCALIZATION,[2],MITO
same,EM(nm),[4]; EX/EM peak no. 1,640 nm
same,EX(nm),[4]; EX/EM peak no. 1,480 nm
Cc1ccnc(-c2cc(C=Cc3ccccc3[N+](=O)[O-])cc[n+]2C)c1.[I-] [Compound J20],LOCALIZATION,[2],VESICLE
same,EM(nm),[4]; EX/EM peak no. 1,620 nm
same,EX(nm),[4]; EX/EM peak no. 1,420 nm
Cc1ccnc(-c2cc(C=Cc3c(F)c(F)c(F)c(F)c3F)cc[n+]2C)c1.[I-] [Compound J31],LOCALIZATION,[2],MITO
same,EM(nm),[4]; EX/EM peak no. 1,520 nm
Cc1ccnc(-c2cc(/C=C/c3cccc4ccccc34)cc[n+]2C)c1.[I-] [Compound J32],LOCALIZATION,[2],MITO
same,EM(nm),[4]; EX/EM peak no. 1,530 nm
same,EX(nm),[4]; EX/EM peak no. 1,350-450 nm
Cc1ccnc(-c2cc(C=Cc3ccc4ccccc4c3)cc[n+]2C)c1.[I-] [Compound J33],LOCALIZATION,[2],MITO
same,EM(nm),[4]; EX/EM peak no. 1,520 nm
same,EX(nm),[4]; EX/EM peak no. 1,320-450 nm
Cc1ccnc(-c2cc(C=CC=Cc3ccccc3)cc[n+]2C)c1.[I-] [Compound J35],LOCALIZATION,[2],CYTO
same,EM(nm),[4]; EX/EM peak no. 1,580 nm
same,EX(nm),[4]; EX/EM peak no. 1,340-420 nm
COc1cc(OC)c(OC)cc1C=Cc1cc[n+](C)c(-c2cc(C)ccn2)c1.[I-] [Compound J38],LOCALIZATION,[2],MITO
same,EM(nm),[4]; EX/EM peak no. 1,590 nm
same,EX(nm),[4]; EX/EM peak no. 1,380-500 nm
Cc1ccnc(-c2cc(C=Cc3ccc4c(c3)OCO4)cc[n+]2C)c1.[I-] [Compound J39],LOCALIZATION,[2],MITO
same,EM(nm),[4]; EX/EM peak no. 1,560 nm
same,EX(nm),[4]; EX/EM peak no. 1,350-450 nm
COc1ccc(C=Cc2cccc(C)[n+]2C)cc1.[I-] [Compound L10],LOCALIZATION,[2],MITO
same,EM(nm),[4]; EX/EM peak no. 1,510 nm
same,EX(nm),[4]; EX/EM peak no. 1,420 nm
Cc1cccc(/C=C/c2ccc(N(C)C)cc2)[n+]1C.[I-] [Compound L19],LOCALIZATION,[2],MITO
same,EM(nm),[4]; EX/EM peak no. 1,580 nm
same,EX(nm),[4]; EX/EM peak no. 1,450 nm
COc1ccc2ccccc2c1C=Cc1cccc(C)[n+]1C.[I-] [Compound L23],LOCALIZATION,[2],CYTO
same,EM(nm),[4]; EX/EM peak no. 1,570 nm
same,EX(nm),[4]; EX/EM peak no. 1,420 nm
Cc1cccc(C=Cc2cccc3ccccc23)[n+]1C.[I-] [Compound L32],LOCALIZATION,[2],MITO
same,EM(nm),[4]; EX/EM peak no. 1,520 nm
same,EX(nm),[4]; EX/EM peak no. 1,400(broad) nm
Cc1cccc(C=Cc2ccc3ccccc3c2)[n+]1C.[I-] [Compound L33],LOCALIZATION,[2],MITO
same,EM(nm),[4]; EX/EM peak no. 1,500 nm
same,EX(nm),[4]; EX/EM peak no. 1,360-470 nm
Cc1cccc(C=CC=Cc2ccccc2)[n+]1C.[I-] [Compound L35],LOCALIZATION,[2],MITO
same,EM(nm),[4]; EX/EM peak no. 1,510 nm
same,EX(nm),[4]; EX/EM peak no. 1,420 nm
